Assay results as given in paper PMC2994747, “Molecular Characterization of c-Abl/c-Src Kinase Inhibitors Targeted against Murine Tumour Progenitor Cells that Express Stem Cell Markers” (PLoS ONE, 2010).

Tests used:
GammaA3 [1] = experiment: Caspase-Glo 3/7 activity assay; type: cell-based, mouse; settings: IC50 concentration
Description: (§3) According to instructions, Caspase-Glo® 3/7 assay (Promega GmbH, Mannheim, Germany) was used for monitoring caspase activity. Briefly, the same volume Caspase-Glo reagent as culture medium was added and incubated 1 h at room temperature. Luminescence was read with a Victor3 Wallac 1420 Multilabel counter (PerkinElmer, Rodgau, Germany). Background absorbance (medium only) was subtracted and the data given as percent of vehicle controls.

[2] = test system: murine and human tumour cell lines; experiment: MTS cell viability assay, statements over the cell line panel; type: cell-based; settings: 96 h; cell line not stated at b77; read-out: IC50 (MTS) after 96 h of treatment
Description: Three human and eleven murine cancer cell lines were used. The human NSCLC cell line A549 (ACC 107) and the human colorectal carcinoma cell line CaCo2 (ACC 169) were obtained from Deutsche Sammlung von Mikroorganismen und Zellkulturen (DSMZ, Braunschweig, Germany). The human hepatocellular carcinoma cell line HepG2 (HB-8065) was obtained from American Type Culture Collection (Manassas, VA, USA). The 11 murine NSCLC cell lines were established as described recently. Cells were grown in monolayer cultures in DMEM containing 10% foetal calf serum, 4 mmol/l L-glutamine and 2% Penicillin/Streptomycin at 37°C in a humidified atmosphere of 95% air and 5% CO2.
Cell culture viability was monitored by CellTiter96® AQueous One Solution Cell Proliferation Assay (Promega GmbH, Mannheim, Germany). The cells were seeded in triplicates in 96-well microtitre plates and treated with the dual kinase inhibitors or vehicle (0.2% DMSO). After 24 h or 96 h of treatment the MTS tetrazolium reagent was added to the cells and incubated for 1 h. Absorbance at 490 nm was assayed with a Victor3 Wallac 1420 Multilabel counter (PerkinElmer, Waltham, MA, USA).

BetaD5 = experiment: Caspase-Glo 3/7 activity assay; type: cell-based, mouse; settings: IC50 concentration, 24 h, vs vehicle
Description: as §3

A2C12 [3] = experiment: Whole genome expression analysis (Affymetrix microarray); type: cell-based, mouse; settings: IC50 concentration, 96 h
Description: (§1) The cells were harvested and RNA was isolated using RNeasy Mini Kit (Qiagen, Hilden, Germany) according to the instructions of the manufacturer. The isolated RNA (250 ng) was processed further using standard protocols as described recently with the exception of the 3′ IVT Express Kit (Affymetrix, High Wycombe, UK) that was utilized according to instructions. Quality control of cRNA was done with the Agilent 2100 Bioanalyzer (Agilent Tech according to manufacturer's protocols. Following fragmentation, cRNA of each sample was hybridized to Affymetrix GeneChip® Mouse Genome 430 2.0 or Human Genome U133 Plus 2.0 and scanned with an Affymetrix 3000 7G scanner.
(§2) The resultant data was normalized by Probe Logarithmic Intensity Error Estimation (PLIER) algorithm. Statistical analysis was carried out with the ArrayTrack software (National Center for Toxicological Research/FDA, Jefferson, AR, USA) using SAM algorithm.

GammaA3 [4] = experiment: as above; type: cell-based, mouse; settings: IC50 concentration, 96 h
Description: as §1, §2

A2C12 [5] = experiment: Cell cycle analysis by flow cytometry; type: cell-based, mouse; settings: IC50 concentration, 96 h
Method in brief: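 Flow cytometric cell-cycle profiling follows trypsin harvest and PBS washing, with staining via a three-reagent DNA kit (first incubation 10 min at room temperature; final one at 4°C, light-protected) and storage on ice until measurement.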

With `Clc1cccc(Nc2nc(SC3CCCC3)nc3c2cnn3CC(Cl)c2ccccc2)c1` (stereo not drawn) [Si135] the “Increase in caspase-3/7 activity” value (GammaA3 [1]; 24 h, vs vehicle) was 10 fold, the “Increase in caspase-3/7 activity” value (GammaA3 [1]; 96 h) was “about 30 % of control” and the IC50 [2] was 2700 nM. For the same compound, the “Increase in caspase-3/7 activity” value (BetaD5) was 10 fold, the “Significantly differentially regulated genes, downregulated (number)” value (A2C12 [3]; SAM FDR<0.01, FC>2) was 33 and the “Significantly differentially regulated genes, upregulated (number)” value (A2C12 [3]; SAM FDR<0.01, FC>2) was 118. The Actg2 gene expression (A2C12 [3]; vs control) was -4.51 log2 of fold change, the Ctgf gene expression (A2C12 [3]; vs control) was 1.05 log2 of fold change and the Dusp3 gene expression (A2C12 [3]; vs control) was 1.06 log2 of fold change. For the same compound, the Gadd45a gene expression (A2C12 [3]; vs control) was 1.81 log2 of fold change, the Il6 gene expression (A2C12 [3]; vs control) was -4.69 log2 of fold change and the Mmp13 gene expression (A2C12 [3]; vs control) was 2.95 log2 of fold change. For the same compound, the Mtm1 gene expression (A2C12 [3]; vs control) was 1.00 log2 of fold change, the Ptn gene expression (A2C12 [3]; vs control) was -5.35 log2 of fold change and the Ptprg gene expression (A2C12 [3]; vs control) was 1.05 log2 of fold change. For the same compound, the “Significantly differentially regulated genes, downregulated (number)” value (GammaA3 [4]; SAM FDR<0.01, FC>2) was 66, the “Significantly differentially regulated genes, upregulated (number)” value (GammaA3 [4]; SAM FDR<0.01, FC>2) was 79 and the Actg2 gene expression (GammaA3 [4]; vs control) was -1.23 log2 of fold change. For the same compound, the Ccl5 gene expression (GammaA3 [4]; vs control) was 3.04 log2 of fold change, the Cenpa gene expression (GammaA3 [4]; vs control) was 1.11 log2 of fold change and the Col1a1 gene expression (GammaA3 [4]; vs control) was -1.15 log2 of fold change. The Has2 gene expression (GammaA3 [4]; vs control) was -1.09 log2 of fold change, the Itga6 gene expression (GammaA3 [4]; vs control) was 1.72 log2 of fold change and the Mapk8ip1 gene expression (GammaA3 [4]; vs control) was -1.05 log2 of fold change. The Mmp3 gene expression (GammaA3 [4]; vs control) was 1.52 log2 of fold change, the Mmp13 gene expression (GammaA3 [4]; vs control) was 1.29 log2 of fold change and the Ngef gene expression (GammaA3 [4]; vs control) was 1.56 log2 of fold change. The Tbrg4 gene expression (GammaA3 [4]; vs control) was -1.09 log2 of fold change, the Ywhaz gene expression (GammaA3 [4]; vs control) was -1.04 log2 of fold change and the Zyx gene expression (GammaA3 [4]; vs control) was -1.34 log2 of fold change. For the same compound, the “Cells in G1 phase” value (A2C12 [5]) was 54.5%, the “Cells in G2 phase” value (A2C12 [5]) was 12.6% and the “Cells in S phase” value (A2C12 [5]) was 33%.
